In patent US11033549B2, “Use of heterocyclic compounds in the treatment of pigmented skin” (ATIR Holding S.A., priority 2017, dated 2021):

Test system: skin
Experiment: Effect of topical application of R-55 on skin of female volunteers
Format: in vivo, human
Conditions: two middle-aged Caucasian female volunteers, daily topical application, after about one month
Description: A formulation for topical administration of R-55 (2-((4-(3-hydroxyphenyl)piperazin-1-yl)methyl)quinazolin-4-one) was prepared, comprising 10 mg/ml R-55.
A lipid-based phase was formed which consisted primarily of propylene glycol (a solvent of R-55 and penetration enhancer), along with Gelucire® 44/14 lauroyl macrogolglycerides (a solubilizer of R-55), Gelucire® 50/13 stearoyl macrogolglycerides (a sustained release agent), phosphatidyl choline (a surfactant), Labrasol® caprylocaproyl macrogolglycerides (a co-surfactant and penetration enhancer), Lauroglycol™ 90 (a solubilizer of R-55, co-surfactant and penetration enhancer), and vitamin E TPGS (a stabilizer). The ingredients were mixed by stirring at a temperature in a range of from 40° C. to 60° C. until the phosphatidyl choline and R-55 were completely dissolved, as indicated by obtaining a clear solution.
An aqueous solution of a carbomer (Carbopol® Ultrez 10) was added to the lipid-based phase with R-55 to obtain 100 grams of a suspension, which was stirred continuously at room temperature. A gel-like water-in-oil emulsion was formed, with relatively round aqueous droplets dispersed in a lipophilic phase, and the emulsion was stable for at least 2 weeks at room temperature. […]

O=c1nc(CN2CCN(c3cccc(O)c3)CC2)[nH]c2ccccc12 [R-55, 2-((4-(3-hydroxyphenyl)piperazin-1-yl)methyl)quinazolin-4-one]
skin pigmentation (10 mg/ml R-55, face and behind the ear): noticeably less pigmented | skin appearance (10 mg/ml R-55): overall fresher, younger appearance
